# Assay: on-resin side-chain lactamisation Lys(NH2)/Glu(COOH) after Pd(0)/PhSiH3 removal of Alloc/OAll; DIC 30 eq + OxymaPure 30 eq; ProTide resin 0.19 mmol/g, ca. 300 mL DCM, 2 days
# Details: the molecule shown is the open-chain precursor, 57-membered ring, scale: % HPLC purity of cyclic product
Substance,"ring closure, conversion by HPLC (48.0 h)","ring closure, conversion by HPLC (168.0 h)"
Fmoc-Thr(tBu)-Lys(NH2)-Asn(Trt)-His(Trt)-Gln(Trt)-Gly-Leu-Gly-Arg(Pbf)-Gly-Asp(OtBu)-Gln(Trt)-Thr(tBu)-Thr(tBu)-Pro-Ala-Gln(Trt)-Glu(COOH)-Ala-Gln(Trt)-Thr(tBu)-Gly-Trp(Boc)-Val-Gln(Trt)-Asn(Trt)-NH-ProTide resin,80.8,
Fmoc-Thr(tBu)-Lys(NH2)-Asn(Trt)-His(Trt)-Gln(Trt)-Gly-Pro-Gly-Arg(Pbf)-Gly-Asp(OtBu)-Gln(Trt)-Thr(tBu)-Thr(tBu)-Leu-Ala-Gln(Trt)-Glu(COOH)-Ala-Gln(Trt)-Thr(tBu)-Gly-Trp(Boc)-Val-Gln(Trt)-Asn(Trt)-NH-ProTide resin,,0
Fmoc-Thr(tBu)-Lys(NH2)-Asn(Trt)-His(Trt)-Gln(Trt)-Gly-Pro-Gly-Arg(Pbf)-Gly-Asp(OtBu)-Gln(Trt)-Thr(tBu)-Thr(tBu)-Pro-Ala-Gln(Trt)-Glu(COOH)-Ala-Gln(Trt)-Thr(tBu)-Gly-Trp(Boc)-Val-Gln(Trt)-Asn(Trt)-NH-ProTide resin,88.6,
Fmoc-Thr(tBu)-Lys(NH2)-Asn(Trt)-His(Trt)-Gln(Trt)-Ser(tBu)-Ala-Gln(Trt)-Arg(Pbf)-Gly-Asp(OtBu)-Leu-Thr(tBu)-Thr(tBu)-Pro-Ala-Gln(Trt)-Glu(COOH)-Ala-Gln(Trt)-Thr(tBu)-Gly-Trp(Boc)-Val-Gln(Trt)-Asn(Trt)-NH-ProTide resin,73.9,
